Data: patent publication US11584754B2, “Derivatives of thailanstatin A, methods of treatment and methods of synthesis thereof” (WILLIAM MARSH RICE UNIVERSITY, priority 2016, dated 2023)
Where two headings read alike, the source gives them in different places. Non-standard residues stand in square brackets, D forms with d. Residues, ends and D or L forms follow the SMILES beside them. *: point of attachment. Dolaproine = CO[C@@H]([C@@H]1CCCN1)[C@@H](C)C(=O)O; Dil = CC[C@H](C)[C@H](NC)[C@@H](CC(=O)O)OC; X1 = C[C@@H](N*)[C@@H](O)c1ccccc1; NMeV = CN[C@H](C(=O)O)C(C)C

Columns and labels:
Type in all cases: cell-based, human
HEK 293T = assay: Cytotoxicity assay (72 hour killing assay, CellTiter-Glo), HEK 293T; settings: read-out: Cancer cell lines IC50 (nM) HEK 293T
Procedure: (§1) Cells were cultured in a T75 flask to ˜50-80% confluency and harvested with trypsin into a single cell suspension. Five hundred (500) cells per well were seeded in tissue culture plates in 50 μL/well culture media and incubated at 37° C. for 18-24 h. Compounds were diluted as 400× final desired concentrations in DMSO. Serial dilutions in DMSO were then diluted in culture media for a final DMSO concentration of 0.25% and 50 μL/well of the final dilution was added to the cells (Vf=100 μL). Upon plating and treatment, cells were returned to the incubator for an additional 72 hours. CellTiter-Glo reagent was prepared per manufacturer's instructions and added at 100 μL/well to the cultures. CellTiter-Glo allows for relative enumeration of metabolically active cells by quantifying intracellular ATP concentrations. After 5 minutes of incubation with CellTiter-Glo at ambient room temperature, 125 μL/well of the Cell Titer glo/cell lysate solution was transferred into black assay plates, which were then read in a luminometer within 30 minutes.
293T cells are human embryonic kidney cell line.

MES SA = assay: Cytotoxicity assay (72 hour killing assay, CellTiter-Glo), MES SA; settings: read-out: Cancer cell lines IC50 (nM) MES SA
Procedure: as §1
(§2) MES SA and MES SA/Dx cells are uterine sarcoma. MES SA Dx cell line was generated from MES SA to achieve upregulation of MDR1.

MES SA DX = assay: Cytotoxicity assay (72 hour killing assay, CellTiter-Glo), MES SA DX; settings: read-out: Cancer cell lines IC50 (nM) MES SA DX
Procedure: as §1, §2

| Compound | IC50 (HEK 293T; Homo sapiens, HEK-293T, 72 h) [nM] | IC50 (MES SA; Homo sapiens, MES-SA, 72 h) [nM] | IC50 (MES SA DX; Homo sapiens, MES-SA, 72 h) [nM] | IC50 (HEK 293T; 50% inhibitory concentration against cell growth, human embryonic kidney cancer cell line, 72 hours) [nM] | IC50 (MES SA; 50% inhibitory concentration against cell growth, human uterine sarcoma cell line, 72 hours) [nM] | IC50 (MES SA DX; 50% inhibitory concentration against cell growth, MES SA cell line with marked multidrug resistance, 72 hours) [nM] | IC50 (MES SA; MES-SA, 50% inhibitory concentration against cell growth, human uterine sarcoma cell line, 72 hours) [nM] | IC50 (MES SA DX; Homo sapiens, 50% inhibitory concentration against cell growth, MES SA cell line with marked multidrug resistance, 72 hours) [nM] |
| --- | --- | --- | --- | --- | --- | --- | --- | --- |
| CC(=O)O[C@@H](C)/C=C\C(=O)N[C@@H]1C[C@H](C)[C@H](C/C=C(C)/C=C/[C@H]2O[C@H](CC(=O)NC3CC3)C[C@@]3(CO3)[C@@H]2O)O[C@@H]1C [Compound 31, (2S,3Z)-5-({(2R,3R,5S,6S)-6-[(2E,4E)-5-{(3R,4R,5R,7S)-7-[2-(Cyclopropylamino)-2-oxoethyl]-4-hydroxy-1,6-dioxaspiro[2.5]oct-5-yl}-3-methylpenta-2,4-dien-1-yl]-2,5-dimethyltetrahydro-2H-pyran-3-yl}amino)-5-oxopent-3-en-2-yl acetate] | 0.739 | 1.04 | 105 |  |  |  |  |  |
| CCOC(=O)CCNC(=O)C[C@@H]1C[C@@]2(CO2)[C@H](O)[C@@H](/C=C/C(C)=C/C[C@@H]2O[C@H](C)[C@H](NC(=O)/C=C\[C@H](C)OC(C)=O)C[C@@H]2C)O1 [Compound 35, Ethyl 3-({[(3R,5S,7R,8R)-7-{(1E,3E)-5-[(2S,3S,5R,6R)-5-{[(2Z,4S)-4-acetoxypent-2-enoyl]amino}-3,6-dimethyltetrahydro-2H-pyran-2-yl]-3-methylpenta-1,3-dien-1-yl}-8-hydroxy-1,6-dioxaspiro-[2.5]oct-5-yl]acetyl}amino)propanoatee] | 2.2 | 6.9 | 261 |  |  |  |  |  |
| COC(=O)C[C@@H]1C[C@@]2(CO2)[C@H](O)[C@@H](/C=C/C(C)=C/C[C@@H]2O[C@H](C)[C@H](NC(=O)/C=C\[C@H](C)OC(=O)N3CCOCC3)C[C@H]2C)O1 [Compound 40] | > 400 | > 2500 | > 2500 |  |  |  |  |  |
| CC[C@H](C)[C@@H]([C@@H](CC(=O)N1CCC[C@H]1[C@H](OC)[C@@H](C)C(=O)N[C@H](C)[C@@H](O)c1ccccc1)OC)N(C)C(=O)[C@@H](NC(=O)[C@@H](NC)C(C)C)C(C)C [MMAE, reference compound] (H-[NMeV]V[Dil][Dolaproine]-X1) |  |  |  | 0.068 | 0.096 | 88.2 |  |  |
| CCOC(=O)CCNC(=O)C[C@@H]1C[C@@]2(CO2)[C@H](O)[C@@H](/C=C/C(C)=C/C[C@@H]2O[C@H](C)[C@H](NC(=O)/C=C\[C@H](C)OC(C)=O)C[C@H]2C)O1 [Compound 33, Ethyl 3-({[(3R,5S,7R,8R)-7-{(1E,3E)-5-[(2S,3R,5R,6R)-5-{[(2Z,4S)-4-acetoxypent-2-enoyl]amino}-3,6-dimethyltetrahydro-2H-pyran-2-yl]-3-methylpenta-1,3-dien-1-yl}-8-hydroxy-1,6-dioxaspiro[2.5]oct-5-yl]acetyl}amino)propanoate] | 1480 | 512 | > 2500 |  |  |  |  |  |
| COC(=O)C[C@@H]1C[C@@]2(CO2)[C@H](O)[C@@H](/C=C/C(C)=C/C[C@@H]2O[C@H](C)[C@H](NC(=O)/C=C\[C@H](C)OC(C)=O)C=C2C)O1 [Compound 32] | > 1000 | > 1000 | > 1000 |  |  |  |  |  |
| COC(=O)C[C@@H]1CC2(CC2)[C@H](O)[C@@H](/C=C/C(C)=C/C[C@@H]2O[C@H](C)[C@H](NC(=O)/C=C\[C@H](C)OC(C)=O)C[C@@H]2C)O1 [Compound 43, Methyl [(5S,7R,8S)-7-{(1E,3E)-5-[(2S,3S,5R,6R)-5-{[(2Z,4S)-4-acetoxypent-2-enoyl]amino}-3,6-di-methyltetrahydro-2H-pyran-2-yl]-3-methylpenta-1,3-dien-1-yl}-8-hydroxy-6-oxaspiro[2.5]oct-5-yl]-acetate] | 88.3 | > 2500 | > 2500 |  |  |  |  |  |
| COC(=O)C[C@@H]1C[C@@]2(CO2)[C@H](O)[C@@H](/C=C/C(C)=C/C[C@@H]2O[C@H](C)[C@H](NC(=O)/C=C\[C@H](C)OC(=O)N3CCCCC3)C[C@@H]2C)O1 [Compound 42] | 0.24 | 3.68 | 3.45 |  |  |  |  |  |
| CC(=O)O[C@H]1C(=O)[C@@]2(C)[C@H]([C@H](OC(=O)c3ccccc3)[C@]3(O)C[C@H](OC(=O)[C@H](O)[C@@H](NC(=O)c4ccccc4)c4ccccc4)C(C)=C1C3(C)C)[C@]1(OC(C)=O)CO[C@@H]1C[C@@H]2O [paclitaxel, reference compound] |  |  |  |  |  |  | 2.47 | > 400 |
| COC(=O)C[C@@H]1C[C@@]2(CO2)[C@H](O)[C@@H](/C=C/C(C)=C/C[C@@H]2O[C@H](C)[C@H](NC(=O)/C=C\[C@H](C)OC(=O)N3CCCCC3)C[C@H]2C)O1 [Compound 38, (2S,3Z)-5-{[(2R,3R,5R,6S)-6-{(2E,4E)-5-[(3R,4R,5R,7S)-4-Hydroxy-7-(2-methoxy-2-oxoethyl)-1,6-dioxaspiro[2.5]oct-5-yl]-3-methylpenta-2,4-dien-1-yl}-2,5-dimethyltetrahydro-2H-pyran-3-yl]-amino}-5-oxopent-3-en-2-yl piperidine-1-carboxylate] | > 400 | > 2500 | > 2500 |  |  |  |  |  |
| COC(=O)C[C@@H]1C[C@@]2(CO2)[C@H](O)[C@@H](/C=C/C(C)=C/C[C@H]2O[C@H](C)[C@H](NC(=O)/C=C\[C@H](C)OC(C)=O)C=C2C)O1 [Compound 30] | > 1000 | > 1000 | > 1000 |  |  |  |  |  |
| COC(=O)C[C@@H]1C[C@@]2(CO2)[C@H](OC(C)=O)[C@@H](/C=C/C(C)=C/C[C@@H]2O[C@H](C)[C@H](NC(=O)/C=C\[C@H](C)OC(C)=O)C[C@@H]2C)O1 [Compound 45, Methyl [(3R,5S,7R,8R)-8-acetoxy-7-{(1E,3E)-5-[(2S,3S,5R,6R)-5-{[(2Z,4S)-4-acetoxypent-2-enoyl]-amino}-3,6-dimethyltetrahydro-2H-pyran-2-yl]-3-methylpenta-1,3-dien-1-yl}-1,6-dioxaspiro[2.5]-oct-5-yl]acetate] | 0.58 | 6.82 | 6.73 |  |  |  |  |  |
| CC(=O)O[C@@H](C)/C=C\C(=O)N[C@@H]1C[C@H](C)[C@H](C/C=C(C)/C=C/[C@H]2O[C@H](CC(=O)O)C[C@@]3(CO3)[C@@H]2O)O[C@@H]1C [Compound 1, Thailanstatin A] | 296 | 419 | > 400 |  |  |  |  |  |
| COC(=O)C[C@@H]1C[C@@]2(CO2)[C@H](O)[C@@H](/C=C/C(C)=C/C[C@@H]2O[C@H](C)[C@H](NC(=O)/C=C\[C@H](C)OC(=O)N3CCOCC3)C[C@@H]2C)O1 [Compound 44] | 0.15 | 2.66 | 3.71 |  |  |  |  |  |
| COC(=O)C[C@@H]1C[C@@]2(CO2)[C@H](O)[C@@H](/C=C/C(C)=C/C[C@@H]2O[C@H](C)[C@H](NC(=O)/C=C\[C@H](C)OC(C)=O)C[C@@H]2C)O1 [Compound 2, Thailanstatin A methyl ester] | 0.36 | 0.32 | 3.6 |  |  |  |  |  |
| COC(=O)C[C@@H]1C[C@@]2(CO2)[C@H](O)[C@@H](/C=C/C(C)=C\C[C@@H]2O[C@H](C)[C@H](NC(=O)/C=C\[C@H](C)OC(C)=O)C=C2C)O1 [Compound 46] | > 1000 | > 1000 | > 1000 |  |  |  |  |  |
| COC(=O)C[C@@H]1C[C@@]2(CO2)[C@H](O)[C@@H](/C=C/C(C)=C/C[C@@H]2O[C@H](C)[C@H](NC(=O)/C=C\[C@H](C)OC(C)=O)C[C@H]2C)O1 [Compound 34, Methyl [(3R,5S,7R,8R)-7-{(1E,3E)-5-[(2S,3R,5R,6R)-5-{[(2Z,4S)-4-acetoxypent-2-enoyl]amino}-3,6-dimethyltetrahydro-2H-pyran-2-yl]-3-methylpenta-1,3-dien-1-yl}-8-hydroxy-1,6-dioxaspiro[2.5]-oct-5-yl]acetate] | > 1000 | 649 | > 1000 |  |  |  |  |  |
| COC(=O)C[C@@H]1C[C@@]2(CO2)[C@H](O)[C@@H](/C=C/C(C)=C\C[C@@H]2O[C@H](C)[C@H](NC(=O)/C=C\[C@H](C)OC(C)=O)C[C@H]2C)O1 [Compound 47, Methyl [(3R,5S,7R,8R)-7-{(1E,3Z)-5-[(2S,3R,5R,6R)-5-{[(2Z,4S)-4-acetoxypent-2-enoyl]amino}-3,6-dimethyltetrahydro-2H-pyran-2-yl]-3-methylpenta-1,3-dien-1-yl}-8-hydroxy-1,6-dioxaspiro[2.5]-oct-5-yl]acetate] | > 1000 | > 1000 | > 1000 |  |  |  |  |  |
| COC(=O)C[C@@H]1C[C@@]2(CO2)[C@H](O)[C@@H](/C=C/C(C)=C/C[C@@H]2O[C@H](C)[C@H](NC(=O)/C=C\[C@H](C)OC(=O)N(C)C)C[C@@H]2C)O1 [Compound 36, Methyl [(3R,5S,7R,8R)-7-{(1E,3E)-5-[(2S,3S,5R,6R)-5-({(2Z,4S)-4-[(dimethylcarbamoyl)oxy]pent-2-enoyl}amino)-3,6-dimethyltetrahydro-2H-pyran-2-yl]-3-methylpenta-1,3-dien-1-yl}-8-hydroxy-1,6-dioxaspiro[2.5]oct-5-yl]acetate] | 0.08 | 0.92 | 1.09 |  |  |  |  |  |
